Experimental data taken from the OligoGym collection.
HELM strings list units from the 5' end as sugar, base in round brackets, then linkage (d deoxyribose, r ribose, m 2'-O-methyl, p phosphodiester). [sp] = phosphorothioate linkage

Key:
[1] = target: CTNNB1; test: HEK293-TLR7, 100 nM ASO, then resiquimod
[2] = target: CTNNB1; test: HEK293-TLR8, 100 nM ASO, then resiquimod

Substance | TLR7 signal (NF-kB luciferase) (% of resiquimod alone) [1] | TLR8 potentiation (NF-kB luciferase) (fold of resiquimod alone) [2]
RNA1{m(G)[sp].m(U)[sp].m(C)[sp].m(C)[sp].m(A)[sp].d(A)[sp].d(G)[sp].d(A)[sp].d(T)[sp].d(C)[sp].d(A)[sp].d(G)[sp].d(C)[sp].d(A)[sp].d(G)[sp].m(U)[sp].m(C)[sp].m(U)[sp].m(C)[sp].m(A)}$$$$ | 32.6 | 1.96
RNA1{m(U)[sp].m(A)[sp].m(G)[sp].m(C)[sp].m(G)[sp].d(T)[sp].d(G)[sp].d(T)[sp].d(C)[sp].d(T)[sp].d(G)[sp].d(G)[sp].d(A)[sp].d(A)[sp].d(G)[sp].m(C)[sp].m(U)[sp].m(U)[sp].m(C)[sp].m(C)}$$$$ | 60.3 | 1.56
RNA1{m(U)[sp].m(A)[sp].m(U)[sp].m(U)[sp].m(U)[sp].d(T)[sp].d(A)[sp].d(A)[sp].d(G)[sp].d(C)[sp].d(A)[sp].d(T)[sp].d(A)[sp].d(T)[sp].d(T)[sp].m(A)[sp].m(A)[sp].m(A)[sp].m(A)[sp].m(A)}$$$$ | 62.3 | 2.61
RNA1{m(U)[sp].m(C)[sp].m(A)[sp].m(A)[sp].m(A)[sp].d(G)[sp].d(T)[sp].d(A)[sp].d(T)[sp].d(A)[sp].d(T)[sp].d(A)[sp].d(C)[sp].d(C)[sp].d(T)[sp].m(G)[sp].m(U)[sp].m(U)[sp].m(U)[sp].m(U)}$$$$ | 64.4 | 4.27
RNA1{m(U)[sp].m(C)[sp].m(A)[sp].m(A)[sp].m(U)[sp].d(G)[sp].d(G)[sp].d(G)[sp].d(A)[sp].d(G)[sp].d(A)[sp].d(A)[sp].d(T)[sp].d(A)[sp].d(A)[sp].m(A)[sp].m(G)[sp].m(C)[sp].m(A)[sp].m(G)}$$$$ | 68.9 | 3.97
RNA1{m(U)[sp].m(C)[sp].m(A)[sp].m(U)[sp].m(U)[sp].d(A)[sp].d(T)[sp].d(A)[sp].d(T)[sp].d(T)[sp].d(T)[sp].d(A)[sp].d(C)[sp].d(T)[sp].d(A)[sp].m(A)[sp].m(A)[sp].m(G)[sp].m(C)[sp].m(U)}$$$$ | 65.5 | 4.22
RNA1{m(U)[sp].m(C)[sp].m(C)[sp].m(A)[sp].m(U)[sp].d(C)[sp].d(C)[sp].d(C)[sp].d(T)[sp].d(T)[sp].d(C)[sp].d(C)[sp].d(T)[sp].d(G)[sp].d(T)[sp].m(U)[sp].m(U)[sp].m(A)[sp].m(G)[sp].m(U)}$$$$ | 96.4 | 4.57
RNA1{m(U)[sp].m(C)[sp].m(U)[sp].m(A)[sp].m(U)[sp].d(T)[sp].d(T)[sp].d(G)[sp].d(T)[sp].d(C)[sp].d(T)[sp].d(A)[sp].d(T)[sp].d(T)[sp].d(T)[sp].m(U)[sp].m(A)[sp].m(U)[sp].m(A)[sp].m(C)}$$$$ | 92.8 | 4.61
RNA1{m(U)[sp].m(C)[sp].m(U)[sp].m(U)[sp].m(A)[sp].d(T)[sp].d(A)[sp].d(A)[sp].d(T)[sp].d(T)[sp].d(A)[sp].d(T)[sp].d(T)[sp].d(G)[sp].d(C)[sp].m(A)[sp].m(A)[sp].m(G)[sp].m(U)[sp].m(G)}$$$$ | 110 | 4.58
RNA1{m(U)[sp].m(G)[sp].m(C)[sp].m(U)[sp].m(U)[sp].d(A)[sp].d(T)[sp].d(T)[sp].d(T)[sp].d(T)[sp].d(A)[sp].d(A)[sp].d(G)[sp].d(C)[sp].d(A)[sp].m(U)[sp].m(A)[sp].m(U)[sp].m(U)[sp].m(A)}$$$$ | 66.4 | 2.73
RNA1{m(U)[sp].m(G)[sp].m(G)[sp].m(C)[sp].m(A)[sp].d(G)[sp].d(G)[sp].d(C)[sp].d(T)[sp].d(C)[sp].d(A)[sp].d(G)[sp].d(T)[sp].d(G)[sp].d(A)[sp].m(U)[sp].m(G)[sp].m(U)[sp].m(C)[sp].m(U)}$$$$ | 50.4 | 1.73
RNA1{m(U)[sp].m(G)[sp].m(U)[sp].m(G)[sp].m(G)[sp].d(C)[sp].d(T)[sp].d(T)[sp].d(G)[sp].d(T)[sp].d(C)[sp].d(C)[sp].d(T)[sp].d(C)[sp].d(A)[sp].m(G)[sp].m(A)[sp].m(C)[sp].m(A)[sp].m(U)}$$$$ | 47.1 | 1.57
RNA1{m(U)[sp].m(U)[sp].m(A)[sp].m(U)[sp].m(U)[sp].d(T)[sp].d(T)[sp].d(A)[sp].d(A)[sp].d(G)[sp].d(C)[sp].d(A)[sp].d(T)[sp].d(A)[sp].d(T)[sp].m(U)[sp].m(A)[sp].m(A)[sp].m(A)[sp].m(A)}$$$$ | 41.5 | 2.97
RNA1{m(U)[sp].m(U)[sp].m(C)[sp].m(A)[sp].m(A)[sp].d(T)[sp].d(G)[sp].d(G)[sp].d(G)[sp].d(A)[sp].d(G)[sp].d(A)[sp].d(A)[sp].d(T)[sp].d(A)[sp].m(A)[sp].m(A)[sp].m(G)[sp].m(C)[sp].m(A)}$$$$ | 32.9 | 3.03
RNA1{m(U)[sp].m(U)[sp].m(C)[sp].m(U)[sp].m(G)[sp].d(C)[sp].d(A)[sp].d(G)[sp].d(C)[sp].d(T)[sp].d(T)[sp].d(C)[sp].d(C)[sp].d(T)[sp].d(T)[sp].m(G)[sp].m(U)[sp].m(C)[sp].m(C)[sp].m(U)}$$$$ | 42.7 | 4.06
RNA1{m(U)[sp].m(U)[sp].m(U)[sp].m(A)[sp].m(U)[sp].d(T)[sp].d(C)[sp].d(A)[sp].d(G)[sp].d(A)[sp].d(T)[sp].d(T)[sp].d(A)[sp].d(C)[sp].d(A)[sp].m(A)[sp].m(U)[sp].m(U)[sp].m(A)[sp].m(A)}$$$$ | 53.4 | 3.68
RNA1{m(U)[sp].m(U)[sp].m(U)[sp].m(U)[sp].m(A)[sp].d(A)[sp].d(G)[sp].d(C)[sp].d(A)[sp].d(T)[sp].d(A)[sp].d(T)[sp].d(T)[sp].d(A)[sp].d(A)[sp].m(A)[sp].m(A)[sp].m(A)[sp].m(G)[sp].m(G)}$$$$ | 59.4 | 3.67
